Source: ChEMBL document CHEMBL3885881, “DrugMatrix”

Organism: Rattus norvegicus
Assay: DrugMatrix - Regimen: Daily Repeat
Format: toxicity, organism-based, Sprague-Dawley
Parameters: regimen Daily Repeat, gender Male, age 6-8 weeks
Settings: in vivo, po, 10 mg/kg, route oral GAVAGE, dose level Low, vehicle .5 % CMC; for ABSOLUTE BASOPHIL / ABSOLUTE EOSINOPHIL / ABSOLUTE LYMPHOCYTE / ABSOLUTE MONOCYTE / ABSOLUTE SEGMENTED NEUTROPHIL / BASOPHIL / EOSINOPHIL / ERYTHROCYTE COUNT / HEMATOCRIT / HEMOGLOBIN / LEUKOCYTE COUNT / LYMPHOCYTE / MEAN CORPUSCULAR HEMOGLOBIN / MEAN CORPUSCULAR HEMOGLOBIN CONCENTRATION / MEAN CORPUSCULAR VOLUME / MONOCYTE / NEUTROPHIL / NUCLEATED RED BLOOD CELLS / PLATELET COUNT: tissue Blood; for ALANINE AMINOTRANSFERASE / ALBUMIN / ALKALINE PHOSPHATASE / ASPARTATE AMINOTRANSFERASE / BLOOD UREA NITROGEN / CARBON DIOXIDE / CHLORIDE / CHOLESTEROL / CREATINE PHOSPHOKINASE / CREATININE / GLUCOSE / LACTATE DEHYDROGENASE / LIPASE / PHOSPHORUS / POTASSIUM / SODIUM / TOTAL BILIRUBIN / TOTAL PROTEIN / URIC ACID: tissue Plasma

Nc1nc(N)c2nc(-c3ccccc3)c(N)nc2n1
ABSOLUTE BASOPHIL (72 h, time 3 day): 0 CELLS/uL
ABSOLUTE EOSINOPHIL (72 h, time 3 day): 222 CELLS/uL
ABSOLUTE LYMPHOCYTE (72 h, time 3 day): 17071.33 CELLS/uL
ABSOLUTE MONOCYTE (72 h, time 3 day): 553.33 CELLS/uL
ABSOLUTE SEGMENTED NEUTROPHIL (72 h, time 3 day): 1620 CELLS/uL
BASOPHIL (72 h, time 3 day): 0%
EOSINOPHIL (72 h, time 3 day): 1%
ERYTHROCYTE COUNT (72 h, time 3 day): 5.9 x10E6/uL
HEMATOCRIT (72 h, time 3 day): 37.03%
HEMOGLOBIN (72 h, time 3 day): 13.67 G/DL
LEUKOCYTE COUNT (72 h, time 3 day): 19.47 x10E3/uL
LYMPHOCYTE (72 h, time 3 day): 87.33%
MEAN CORPUSCULAR HEMOGLOBIN (72 h, time 3 day): 23.17 pg
MEAN CORPUSCULAR HEMOGLOBIN CONCENTRATION (72 h, time 3 day): 36.93 G/DL
MEAN CORPUSCULAR VOLUME (72 h, time 3 day): 62.7 fL
MONOCYTE (72 h, time 3 day): 3%
NEUTROPHIL (72 h, time 3 day): 8.67%
NUCLEATED RED BLOOD CELLS (72 h, time 3 day): 0 /100WBC
PLATELET COUNT (72 h, time 3 day): 1434.33 x10E3/uL
ALANINE AMINOTRANSFERASE (72 h, time 3 day): 48.33 u/L
ALBUMIN (72 h, time 3 day): 4.3 G/DL
ALKALINE PHOSPHATASE (72 h, time 3 day): 469.67 u/L
ASPARTATE AMINOTRANSFERASE (72 h, time 3 day): 88 u/L
BLOOD UREA NITROGEN (72 h, time 3 day): 15.33 mg/dL
CARBON DIOXIDE (72 h, time 3 day): 24 mmol/L
CHLORIDE (72 h, time 3 day): 104.67 MEQ/L
CHOLESTEROL (72 h, time 3 day): 67.33 mg/dL
CREATINE PHOSPHOKINASE (72 h, time 3 day): 281 u/L
CREATININE (72 h, time 3 day): 0.21 mg/dL
GLUCOSE (72 h, time 3 day): 161.33 mg/dL
LACTATE DEHYDROGENASE (72 h, time 3 day): 437.67 u/L
LIPASE (72 h, time 3 day): 8.67 u/L
PHOSPHORUS (72 h, time 3 day): 13.37 mg/dL
POTASSIUM (72 h, time 3 day): 6.69 MEQ/L
SODIUM (72 h, time 3 day): 147.13 MEQ/L
TOTAL BILIRUBIN (72 h, time 3 day): 0.23 mg/dL
TOTAL PROTEIN (72 h, time 3 day): 6.03 G/DL
URIC ACID (72 h, time 3 day): 2.37 mg/dL
ABSOLUTE BASOPHIL (120 h, time 5 day): 0 CELLS/uL
ABSOLUTE EOSINOPHIL (120 h, time 5 day): 142.67 CELLS/uL
ABSOLUTE LYMPHOCYTE (120 h, time 5 day): 11218.33 CELLS/uL
ABSOLUTE MONOCYTE (120 h, time 5 day): 128 CELLS/uL
ABSOLUTE SEGMENTED NEUTROPHIL (120 h, time 5 day): 1311 CELLS/uL
BASOPHIL (120 h, time 5 day): 0%
EOSINOPHIL (120 h, time 5 day): 1.33%
ERYTHROCYTE COUNT (120 h, time 5 day): 5.9 x10E6/uL
HEMATOCRIT (120 h, time 5 day): 36.6%
HEMOGLOBIN (120 h, time 5 day): 13.67 G/DL
LEUKOCYTE COUNT (120 h, time 5 day): 12.8 x10E3/uL
LYMPHOCYTE (120 h, time 5 day): 87.67%
MEAN CORPUSCULAR HEMOGLOBIN (120 h, time 5 day): 23.17 pg
MEAN CORPUSCULAR HEMOGLOBIN CONCENTRATION (120 h, time 5 day): 37.33 G/DL
MEAN CORPUSCULAR VOLUME (120 h, time 5 day): 62 fL
MONOCYTE (120 h, time 5 day): 1%
NEUTROPHIL (120 h, time 5 day): 10%
NUCLEATED RED BLOOD CELLS (120 h, time 5 day): 0.33 /100WBC
PLATELET COUNT (120 h, time 5 day): 1227.67 x10E3/uL
ALANINE AMINOTRANSFERASE (120 h, time 5 day): 45.33 u/L
ALBUMIN (120 h, time 5 day): 4.2 G/DL
ALKALINE PHOSPHATASE (120 h, time 5 day): 320.33 u/L
ASPARTATE AMINOTRANSFERASE (120 h, time 5 day): 83 u/L
BLOOD UREA NITROGEN (120 h, time 5 day): 18.67 mg/dL
CARBON DIOXIDE (120 h, time 5 day): 26 mmol/L
CHLORIDE (120 h, time 5 day): 106.67 MEQ/L
CHOLESTEROL (120 h, time 5 day): 68.33 mg/dL
CREATINE PHOSPHOKINASE (120 h, time 5 day): 371.67 u/L
CREATININE (120 h, time 5 day): 0.19 mg/dL
GLUCOSE (120 h, time 5 day): 145 mg/dL
LACTATE DEHYDROGENASE (120 h, time 5 day): 432 u/L
LIPASE (120 h, time 5 day): 9 u/L
PHOSPHORUS (120 h, time 5 day): 11.77 mg/dL
POTASSIUM (120 h, time 5 day): 5.68 MEQ/L
SODIUM (120 h, time 5 day): 147.3 MEQ/L
TOTAL BILIRUBIN (120 h, time 5 day): 0.17 mg/dL
TOTAL PROTEIN (120 h, time 5 day): 5.93 G/DL
URIC ACID (120 h, time 5 day): 1.3 mg/dL
